In brackets after ≈: the same amount, converted by molar mass. Activity calls are given as the source filed them.

The source of these data is ChEMBL document CHEMBL5338809, “Fragment-Based Discovery of Azocyclic Alkyl Naphthalenesulfonamides as Keap1-Nrf2 Inhibitors for Acute Lung Injury Treatment” (J Med Chem, 2023).

Series [1] in a line: Oral bioavailability in Sprague-Dawley rat. Format: ADME, organism-based. As to conditions: in vivo.
For series [2], the system named is Mus musculus. The experiment in a line: Antiinflammatory activity in LPS-induced C57BL/6 mouse model of […] assessed as Nrf2 nuclear translocation in lung tissue at 2.5 to 10 mg/kg, ip pretreated with compound for 30 mins followed by LPS stimulation and measured after 6 hrs by Western blotting analysis. Format: functional, organism-based. As to conditions: dose 2.5-10 mg/kg, time 390.0 min.

Series [3] concerns Peritoneal macrophage. The experiment in a line: Antiinflammatory activity in mouse peritoneal macrophages assessed as reduction in LPS-induced IL6 level at 10 uM incubated for 4 hrs by ELISA method. The series is classed as functional, cell-based. (In general: ELISA stands for enzyme-linked immunosorbent assay.)
Series [4] has as its system Mus musculus. As to the kind of experiment: Antiinflammatory activity in LPS-induced C57BL/6 mouse model of […] assessed as reduction in congestion in lung tissue at 2.5 to 10 mg/kg, ip pretreated with compound for 30 mins followed by LPS stimulation and measured after 6 hrs by hematoxylin and eosin staining method. Format: functional, organism-based. As to conditions: dose 2.5-10 mg/kg, time 390.0 min.

Series [5] has as its system Mus musculus. The experiment in a line: Antiinflammatory activity in LPS-induced C57BL/6 mouse model of […] assessed as inhibition of TNFalpha level in BALF administered intraperitoneally pretreated with compound for 30 mins followed by LPS stimulation and measured after 6 hrs by ELISA method. The series is classed as functional, organism-based. The following applies: dose 2.5-10 mg/kg, route ip, time 390.0 min.

The target in series [6] is Keap1/Nrf2 (Homo sapiens) (UniProt Q16236+Q14145). The experiment in a line: Binding affinity to human Keap1-Nrf2 protein-protein interaction assessed as dissociation constant (Kd2) incubated for 60 mins by fluorescent polarization assay.
Sequence of Keap1/Nrf2 (Homo sapiens) (Q14145 whole entry, looked up): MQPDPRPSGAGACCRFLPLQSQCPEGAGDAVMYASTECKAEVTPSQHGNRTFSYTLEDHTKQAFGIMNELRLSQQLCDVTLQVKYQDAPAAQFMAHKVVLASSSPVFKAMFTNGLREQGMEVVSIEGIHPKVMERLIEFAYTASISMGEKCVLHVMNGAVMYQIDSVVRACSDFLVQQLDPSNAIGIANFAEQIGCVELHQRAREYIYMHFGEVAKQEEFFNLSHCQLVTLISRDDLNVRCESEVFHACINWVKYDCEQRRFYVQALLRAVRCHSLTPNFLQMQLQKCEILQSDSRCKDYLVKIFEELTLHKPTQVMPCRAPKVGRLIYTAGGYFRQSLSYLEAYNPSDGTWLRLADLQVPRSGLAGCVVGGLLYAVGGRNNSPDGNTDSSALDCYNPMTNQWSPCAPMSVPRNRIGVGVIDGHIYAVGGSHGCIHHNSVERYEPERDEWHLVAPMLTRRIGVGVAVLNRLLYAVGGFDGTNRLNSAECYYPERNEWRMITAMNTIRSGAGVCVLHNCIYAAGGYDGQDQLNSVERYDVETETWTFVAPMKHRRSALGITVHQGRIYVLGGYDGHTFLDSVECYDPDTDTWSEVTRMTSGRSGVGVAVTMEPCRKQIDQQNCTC
Sequence of Keap1/Nrf2 (Homo sapiens) (Q16236 whole entry, looked up): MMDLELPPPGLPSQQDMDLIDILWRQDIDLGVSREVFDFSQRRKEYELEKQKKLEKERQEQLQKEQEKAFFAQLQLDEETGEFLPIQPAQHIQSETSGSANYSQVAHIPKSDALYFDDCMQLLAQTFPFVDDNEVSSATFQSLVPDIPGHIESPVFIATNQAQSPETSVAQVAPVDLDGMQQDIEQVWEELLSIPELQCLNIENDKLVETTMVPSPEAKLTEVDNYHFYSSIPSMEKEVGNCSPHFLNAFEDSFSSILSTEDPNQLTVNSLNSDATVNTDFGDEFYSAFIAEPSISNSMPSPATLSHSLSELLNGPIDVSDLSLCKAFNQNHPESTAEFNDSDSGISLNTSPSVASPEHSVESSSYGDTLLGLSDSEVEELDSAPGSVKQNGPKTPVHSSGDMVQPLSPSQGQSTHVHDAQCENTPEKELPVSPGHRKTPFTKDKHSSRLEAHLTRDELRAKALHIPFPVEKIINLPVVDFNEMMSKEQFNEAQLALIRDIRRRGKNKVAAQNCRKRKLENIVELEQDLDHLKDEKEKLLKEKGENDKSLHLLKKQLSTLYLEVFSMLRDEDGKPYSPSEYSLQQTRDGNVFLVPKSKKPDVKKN
The test system of series [7] is Mus musculus. As to the kind of experiment: Antiinflammatory activity in LPS-induced C57BL/6 mouse model of […] assessed as reduction in inflammatory cell infiltrations in lung tissue at 2.5 to 10 mg/kg, ip pretreated with compound for 30 mins followed by LPS stimulation and measured after 6 hrs by hematoxylin and eosin staining method. Format: functional, organism-based. The following applies: dose 2.5-10 mg/kg, time 390.0 min.

Series [8] has as its system Mus musculus. As to the kind of experiment: Antiinflammatory activity in LPS-induced C57BL/6 mouse model of […] assessed as inhibition of IL6 level in BALF administered intraperitoneally pretreated with compound for 30 mins followed by LPS stimulation and measured after 6 hrs by ELISA method. The series is classed as functional, organism-based. The following applies: dose 2.5-10 mg/kg, route ip, time 390.0 min.

Series [9] relates to Mus musculus. The experiment in a line: Antiinflammatory activity in LPS-induced C57BL/6 mouse model of […] assessed as inhibition of TNFalpha expression in lung tissue at 2.5 to 10 mg/kg, ip pretreated with compound for 30 mins followed by LPS stimulation and measured after 6 hrs by qRT-PCR analysis. Format: functional, organism-based. The following applies: dose 2.5-10 mg/kg, time 390.0 min.

The test system of series [10] is Mus musculus. As to the kind of experiment: Antiinflammatory activity in LPS-induced C57BL/6 mouse model of […] assessed as inhibition of IL1beta level in BALF administered intraperitoneally pretreated with compound for 30 mins followed by LPS stimulation and measured after 6 hrs by ELISA method. The following applies: dose 2.5-10 mg/kg, route ip, time 390.0 min. The series is classed as functional, organism-based.

Series [11] relates to Mus musculus. As to the kind of experiment: Antiinflammatory activity in LPS-induced C57BL/6 mouse model of […] assessed as inhibition of IL6 expression in lung tissue at 2.5 to 10 mg/kg, ip pretreated with compound for 30 mins followed by LPS stimulation and measured after 6 hrs by qRT-PCR analysis. Format: functional, organism-based. As to conditions: dose 2.5-10 mg/kg, time 390.0 min. (Real-time PCR tracks product formation cycle by cycle.)

Series [12] deals with Mus musculus. The experiment in a line: Antiinflammatory activity in LPS-induced C57BL/6 mouse model of […] assessed as reduction in bleeding points in lung tissue at 2.5 to 10 mg/kg, ip pretreated with compound for 30 mins followed by LPS stimulation and measured after 6 hrs by hematoxylin and eosin staining method. As to conditions: dose 2.5-10 mg/kg, time 390.0 min. Format: functional, organism-based.

Series [13] relates to Mus musculus. The experiment in a line: Antiinflammatory activity in LPS-induced C57BL/6 mouse model of […] assessed as inhibition of IL1beta expression in lung tissue at 2.5 to 10 mg/kg, ip pretreated with compound for 30 mins followed by LPS stimulation and measured after 6 hrs by qRT-PCR analysis. Format: functional, organism-based. As to conditions: dose 2.5-10 mg/kg, time 390.0 min.

Series [14] can be described thus: Half life in Sprague-Dawley rat at 20 mg/kg, ip. The series is classed as ADME, organism-based. As to conditions: in vivo.
Series [15] is described as follows: Aqueous solubility of the compound in PBS at pH 7 at 2 mg incubated for 24 hrs by HPLC-UV analysis. Format: physicochemical.
A short description of series [16]: MRT (0 to infinity) in Sprague-Dawley rat at 20 mg/kg, ip. The series is classed as ADME, organism-based. As to conditions: in vivo.
The nature of series [17]: AUC (0 to infinity) in Sprague-Dawley rat at 5 mg/kg, iv. Also on record: dose 5 mg/kg, route iv. Format: ADME, organism-based. As to conditions: in vivo.
In series [18] the test system is Peritoneal macrophage. The experiment in a line: Antiinflammatory activity in mouse peritoneal macrophages assessed as fold reduction in LPS-induced TNFalpha level at 10 uM incubated for 4 hrs by ELISA method. The series is classed as functional.
Series [19] in a line: Half life in Sprague-Dawley rat at 5 mg/kg, iv. The series is classed as ADME, organism-based. The following applies: in vivo.
Series [20] in a line: Cmax in Sprague-Dawley rat at 20 mg/kg, ip. Format: ADME, organism-based. Also noted: dose 20 mg/kg, route ip. The following applies: in vivo.
A short description of series [21]: Apparent volume of distribution in Sprague-Dawley rat at 5 mg/kg, iv. Format: ADME, organism-based. As to conditions: in vivo, read-out: Vz.
A short description of series [22]: Tmax in Sprague-Dawley rat at 20 mg/kg, ip. The series is classed as ADME, organism-based. The following applies: in vivo.
Series [23] is described as follows: AUC (0 to 24 hrs) in Sprague-Dawley rat at 20 mg/kg, ip. Also noted: dose 20 mg/kg, route ip. As to conditions: in vivo. Format: ADME, organism-based.
Series [24] is described as follows: Apparent volume of distribution in Sprague-Dawley rat at 20 mg/kg, ip. Format: ADME, organism-based. The following applies: in vivo.
Series [25] can be described thus: MRT (0 to infinity) in Sprague-Dawley rat at 5 mg/kg, iv. The series is classed as ADME, organism-based. As to conditions: in vivo.
Series [26] is described as follows: Cytotoxicity against mouse peritoneal macrophages assessed as reduction in cell viability incubated for 24 hrs by Cell titer-blue assay. The series is classed as toxicity, cell-based, Peritoneal macrophage. (Resazurin is reduced to fluorescent resorufin, in cell work by metabolically active cells.)
Series [27] in a line: Aqueous solubility of the compound in PBS at pH 2 at 2 mg incubated for 24 hrs by HPLC-UV analysis. Format: physicochemical.
Series [28] is described as follows: Clearance in Sprague-Dawley rat at 20 mg/kg, ip. Format: ADME, organism-based. The following applies: in vivo.
Series [29] in a line: AUC (0 to 24 hrs) in Sprague-Dawley rat at 5 mg/kg, iv. Also noted: dose 5 mg/kg, route iv. The series is classed as ADME, organism-based. As to conditions: in vivo.
Series [30] is described as follows: MRT (0 to 24 hrs) in Sprague-Dawley rat at 5 mg/kg, iv. The series is classed as ADME, organism-based. As to conditions: in vivo.
A short description of series [31]: AUC (0 to infinity) in Sprague-Dawley rat at 20 mg/kg, ip. Also noted: dose 20 mg/kg, route ip. The following applies: in vivo. Format: ADME, organism-based.
Series [32] can be described thus: MRT (0 to 24 hrs) in Sprague-Dawley rat at 20 mg/kg, ip. The series is classed as ADME, organism-based. As to conditions: in vivo.
Series [33] is described as follows: Clearance in Sprague-Dawley rat at 5 mg/kg, iv. As to conditions: in vivo. The series is classed as ADME, organism-based.
Series [34] can be described thus: Aqueous solubility of the compound in PBS at pH 7.4 at 2 mg incubated for 24 hrs by HPLC-UV analysis. The series is classed as physicochemical.

The term bioavailability denotes the share of a dose that reaches the circulation, judged against a reference dose that is usually intravenous. In turn, `CCN1CCN(CCC(=O)Nc2ccc(S(=O)(=O)N(CC(N)=O)c3ccc(N(CC(N)=O)S(=O)(=O)c4ccc(OC)cc4)c4ccccc34)cc2)CC1.Cl` returned a bioavailability in series [1] of 20%.

Take `COc1ccc(S(=O)(=O)N(CC(N)=O)c2ccc(N(CC(N)=O)S(=O)(=O)c3ccc(NC(=O)[C@H]4CCN4)cc3)c3ccccc23)cc1` [listing 1 of 2 here]: the outcome in the series with Mus musculus [2], with Peritoneal macrophage [3], in the series with Mus musculus [4], in the series on Mus musculus [7] and with Mus musculus [12] was Active. The inhibition result in the series with Mus musculus [5], in the series with Mus musculus [8] and in the series on Mus musculus [10] was “Dose-Dependent Effect” in each case. Also, in series [6], the K came to 220 nM. For the same compound, the inhibition entry with Mus musculus [9], in the series on Mus musculus [11] and in the series on Mus musculus [13] was “Active” throughout.

Broadly, the half-life is the time needed for the level to fall by half in the phase considered. Read a low half-life as rapid decline. As usually defined, the solubility is how much of the substance goes into solution per volume. A high value points to much dissolved substance. As a reminder, the MRT inf is the average time that molecules of a dose stay in the body. As usually defined, the AUC(0-inf) is the area under the concentration-time curve extrapolated to infinity. A lower AUC(0-inf) goes with low exposure. By Cmax is commonly meant the highest concentration seen after dosing. As usually defined, the Tmax is the time from dosing to the highest level. By AUC(0-t) is commonly meant exposure summed from dosing to a finite time, without extrapolation to infinity. The low end stands for low exposure, the high end for high exposure. By CC50 is commonly meant the concentration giving 50% cytotoxicity. In general, CL/F refers to clearance divided by bioavailability, as obtained after extravascular dosing. The term MRT last denotes a mean duration of stay, worked out from the concentration-time curve. In general, clearance refers to the rate of elimination divided by the concentration. Read a high clearance as efficient removal. Take `COc1ccc(S(=O)(=O)N(CC(N)=O)c2ccc(N(CC(N)=O)S(=O)(=O)c3ccc(NC(=O)[C@H]4CCN4)cc3)c3ccccc23)cc1` [listing 2 of 2 here]: the half-life in [14] was 5.75 h; in [19], 12.7 h. Also, the solubility at 24 h in [15] is 404 µg/mL (≈ 593 µM); in series [27], 601 µg/mL (≈ 883 µM); in series [34], 216 µg/mL (≈ 318 µM). Also, the figures for the MRT inf in [16] and in [25] were 1.97 h and 9.67 h, respectively. In addition, the AUC(0-inf) in series [17] turned out to be 1590 ng·h/mL; in series [31], 11200 ng·h/mL. Further, the “fold change (FC)” value with Peritoneal macrophage [18] is recorded as “<=0.5”. The compound further gave a Cmax in [20] of 8430 ng/mL. Further, the Vd in [21] was 60.5 L/kg. The time of peak concentration (Tmax) in series [22] was found to be 0.38 h. In addition, the exposure AUC(0-t) in series [23] is 11200 ng·h/mL; in [29], 1390 ng·h/mL. Besides, the Vz in series [24] stood at 16.24474 L/kg. Moreover, in [26], the CC50 at 24 h was > 100 µM. Further, the CL/F in series [28] is 31.8 mL/min/kg. For the same compound, the mean residence time (MRT last) came to 2.83 h in series [30] and 1.75 h in series [32]. The clearance in [33] is 57.4 mL/min/kg.
